# According to PMC11050599, “Novel Tetracyclic Azaphenothiazines with the Quinoline Ring as New Anticancer and Antibacterial Derivatives of Chlorpromazine” (International Journal of Molecular Sciences, 2024):
# Key:
# A549 (lung cancer) = assay: MTT assay, A549 cells; assay type: cell-based, human; conditions: for IC50: Homo sapiens, A549, MTT, 72 h, mean SD, read-out: IC50 A549; for SI A549: SI = IC50 for normal cell line (HaCaT)/IC50 cancer cell line
# Procedure: (§1) The human cell lines, such as A549 (lung cancer), MDA-MB-231 (breast cancer), MiaPaca-2 (pancreatic cancer), PC3 (metastatic prostate cancer), HCT-116 (colon carcinoma), and HaCaT (immortalized keratinocytes), were sourced from the American Type Culture Collection (ATCC) in Rockville, USA. Culturing conditions varied as follows: HCT116 cells were cultured in MEM (ThermoSci, Waltham, MA, USA), A549, MDA-MB-231, MiaPaca, HaCaT cells in DMEM High Glucose and PC3 cells were cultured in RPMI (Biowest SAS, Nuaillé, France). The growth medium consisted of 10% fetal bovine serum (FBS, Sigma-Aldrich, St. Louis, MO, USA), 20 mM HEPES (Biowest, Nuaillé, France), and antibiotics (100 U/mL of penicillin and 100 μg/mL of streptomycin) from Gibco, Grand Island, NY, USA. […] These compounds were added to 96-well plates containing study cells (1 × 10^4 cells per well) and incubated for 72 h. […] Cell absorbance results were incorporated into the formula for calculating the relative MTT level (%), enabling the assessment of cell viability following exposure to the test compounds. The cell viability percentage represents the MTT reduction in cells treated with the test compounds compared to the control sample, where only the medium was added to the cells.
# [1] = test system: HaCaT (immortalized human keratinocytes); assay: MTT assay, HaCaT normal cells; assay type: cell-based; conditions: Homo sapiens, HaCaT; MTT, 72 h, normal cells; read-out: IC50 HaCaT (Table 3)
# Procedure: as §1
# [2] = test system: MDA-MB-231 (breast cancer); assay: MTT assay, MDA-MB-231 cells; assay type: cell-based, human; conditions: for IC50: Homo sapiens, MDA-MB-231, MTT, 72 h, MDA-MB231, read-out: IC50 MDA; for SI MDA: SI = IC50 for normal cell line (HaCaT)/IC50 cancer cell line
# Procedure: as §1
# S. aureus ATCC 29213 = assay: MIC broth microdilution; assay type: cell-based; conditions: Staphylococcus aureus, ATCC29213; 19 h, 35 °C; read-out: MIC S. aureus ATCC 29213
# Description: (§2) To evaluate the antibacterial effectiveness of chloroquinobenzothiazine derivatives, various bacterial strains from international microbe collections such as the American Type Culture Collection (ATCC) and the National Collection of Type Culture (NCTC) were examined, alongside a panel of clinical rods. This included two Gram-negative organisms, E. coli ATCC 25922 and P. aeruginosa ATCC 15442, and a series of six Gram-positive strains: S. aureus NCTC 4163; S. aureus ATCC 29213, 25923, and 6538; and S. epidermidis ATCC 12228 and 35984. […] The MIC was determined using the two-fold serial broth microdilution method in 96-well microtitration plates containing Mueller-Hinton II broth medium (Becton Dickinson, Franklin Lakes, NJ, USA). The final inoculum for all tested bacteria was adjusted to […] (colony-forming units per milliliter). The stock solution of the tested compounds was prepared in dimethyl sulfoxide (DMSO) and diluted to a maximum of 1% solvent content with a sterile medium.
# [3] = test system: S. epidermidis ATCC 12228; assay: MIC broth microdilution; assay type: cell-based; conditions: Staphylococcus epidermidis, ATCC12228; 19 h, 35 °C; read-out: MIC S. epidermidis ATCC 12228
# Description: as §2
# S. aureus NCTC 4163 = assay: MIC broth microdilution; assay type: cell-based; conditions: Staphylococcus aureus, NCTC4163; 19 h, 35 °C; read-out: MIC S. aureus NCTC 4163
# Description: as §2
# P. aeruginosa ATCC 15442 = assay: MIC broth microdilution; assay type: cell-based; conditions: Pseudomonas aeruginosa, ATCC15442; 19 h, 35 °C; read-out: MIC P. aeruginosa ATCC 15442
# Description: as §2
# E. coli ATCC 25922 = assay: MIC broth microdilution; assay type: cell-based; conditions: Escherichia coli, ATCC25922; 19 h, 35 °C; read-out: MIC E. coli ATCC 25922
# Description: as §2
# [4] = test system: S. epidermidis ATCC 35984; assay: MIC broth microdilution; assay type: cell-based; conditions: Staphylococcus epidermidis, ATCC35984; 19 h, 35 °C; read-out: MIC S. epidermidis ATCC 35984
# Description: as §2
# S. aureus ATCC 25923 = assay: MIC broth microdilution; assay type: cell-based; conditions: Staphylococcus aureus, ATCC25923; 19 h, 35 °C; read-out: MIC S. aureus ATCC 25923
# Description: as §2
# S. aureus ATCC 6538 = assay: MIC broth microdilution; assay type: cell-based; conditions: Staphylococcus aureus, ATCC6538; 19 h, 35 °C; read-out: MIC S. aureus ATCC 6538
# Description: as §2
Compound,IC50 (A549 (lung cancer)) [µM],SI A549 (A549 (lung cancer)),IC50 [1] [µM],IC50 [2] [µM],SI MDA [2],MIC (S. aureus ATCC 29213) [µg/mL],MIC [3] [µg/mL],MIC (S. aureus NCTC 4163) [µg/mL],MIC (P. aeruginosa ATCC 15442) [µg/mL],MIC (E. coli ATCC 25922) [µg/mL],MIC [4] [µg/mL],MIC (S. aureus ATCC 25923) [µg/mL],MIC (S. aureus ATCC 6538) [µg/mL]
"CC(=O)NCCCN1c2cc(Cl)ccc2Sc2cc3ccccc3nc21 [Compound 16, N-(3-(8-Chloroquino[3,2-b]benzo[1,4]thiazin-6-yl)propyl)acetamide]",24.6 ± 6.1,4.1,> 100,76.6 ± 8.9,1.3,> 256,> 256,> 256,> 256,> 256,> 256,> 256,> 256
"Clc1ccc2c(c1)N(CCN1CCCCC1)c1nc3ccccc3cc1S2 [Compound 10, 8-Chloro-6-(2-(piperidin-1-yl)ethyl)-quino[3,2-b]benzo[1,4]thiazine]",63.8 ± 8.5,1.6,> 100,> 100,1.0,> 256,> 256,> 256,> 256,> 256,> 256,> 256,> 256
"Cc1ccc(S(=O)(=O)NCCCN2c3cc(Cl)ccc3Sc3cc4ccccc4nc32)cc1 [Compound 24, N-(3-(8-Chloroquino[3,2-b]benzo[1,4]thiazin-6-yl)propyl)-4-methylbenzenesulfonamide]",> 100,1.0,> 100,> 100,1.0,> 256,> 256,> 256,> 256,> 256,> 256,> 256,> 256
"Fc1ccc(Cn2cc(CN3c4cc(Cl)ccc4Sc4cc5ccccc5nc43)nn2)cc1 [Compound 30, 8-chloro-6-((1-(4-fluorobenzyl)-1H-1,2,3-triazol-4-yl)methyl)-quino[3,2-b]benzo[1,4]thiazine]",> 100,1.0,> 100,> 100,1.0,> 256,> 256,> 256,> 256,> 256,> 256,> 256,> 256
"Clc1ccc2c(c1)N(Cc1cn(CSc3ccccc3)nn1)c1nc3ccccc3cc1S2 [Compound 33, 8-Chloro-6-((1-((phenylthio)methyl)-1H-1,2,3-triazol-4-yl)methyl)-quino[3,2-b]benzo[1,4]thiazine]",> 100,1.0,> 100,> 100,1.0,> 256,> 256,> 256,> 256,> 256,> 256,> 256,> 256
"CCOC(=O)NCCCCN1c2cc(Cl)ccc2Sc2cc3ccccc3nc21 [Compound 19, Ethyl(4-(8-chloroquino[3,2-b]benzo[1,4]thiazin-6-yl)butyl)carbamate]",> 100,1.0,> 100,> 100,1.0,> 256,> 256,> 256,> 256,> 256,> 256,> 256,> 256
